This is an account of results in ChEMBL document CHEMBL1151043, “The synthesis and antibacterial activity of 2-para-quarternary ammoniomethylphenyl-carbapenems” (1993).

For one test, the system named is Klebsiella. Briefly: In vitro antibacterial activity against Klebsiella relative to thienamycin. It counts as functional.
The subject of a further test is Serratia. As to the kind of experiment: In vitro antibacterial activity against Serratia relative to thienamycin. It counts as functional.
A further test has as its system Staphylococcus aureus. Briefly: In vitro antibacterial activity against Staphylococcus aureus relative to thienamycin. Format: functional.
For a further test, the system named is Enterococcus. As to the kind of experiment: In vitro antibacterial activity against Enterococcus relative to thienamycin. It counts as functional.
In a further test the test system is Pseudomonas. Briefly: In vitro antibacterial activity against Pseudomonas relative to thienamycin. It counts as functional.
The test system of another test is Proteus. As to the kind of experiment: In vitro antibacterial activity against Proteus relative to thienamycin. It counts as functional, Proteus sp.
For test [1], the target named is T1, Dipeptidase 1 (Sus scrofa) (UniProt P22412).
T1 sequence (whole entry): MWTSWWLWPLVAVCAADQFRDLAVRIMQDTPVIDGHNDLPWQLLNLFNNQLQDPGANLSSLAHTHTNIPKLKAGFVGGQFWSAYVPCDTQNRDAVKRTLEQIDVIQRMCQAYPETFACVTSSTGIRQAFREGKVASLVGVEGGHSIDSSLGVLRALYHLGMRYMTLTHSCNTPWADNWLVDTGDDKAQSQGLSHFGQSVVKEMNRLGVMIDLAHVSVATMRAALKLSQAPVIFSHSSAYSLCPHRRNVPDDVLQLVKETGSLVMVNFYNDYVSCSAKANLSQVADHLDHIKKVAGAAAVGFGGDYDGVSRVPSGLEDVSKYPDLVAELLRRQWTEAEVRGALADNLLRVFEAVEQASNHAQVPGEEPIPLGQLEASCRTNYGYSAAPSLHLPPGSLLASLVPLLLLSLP
Briefly: Susceptibility of compound towards porcine Dehydropeptidase-1 relative to imipenem as […] was calculated.

The test system of the next test is Escherichia coli. Briefly: In vitro antibacterial activity against Escherichia coli relative to thienamycin. Format: functional.
A further test has as its system Enterobacter. As to the kind of experiment: In vitro antibacterial activity against Enterobacter relative to thienamycin. Format: functional.

`C[C@@H](O)[C@H]1C(=O)N2C(C(=O)O)=C(c3ccc(CN4CCN(C)CC4)cc3)C[C@H]12`: the Relative potency worked out at 1 in the test with Klebsiella; 7 in the test on Serratia; 0.4 in the test with Staphylococcus aureus; 5.7 with Enterococcus; 0.04 with Pseudomonas; 9.2 in the test with Proteus. Moreover, the Relative potency in the test on Escherichia coli is recorded as 3; in the test on Enterobacter it was 4.9. For the same compound, the Susceptibility in test [1] was 0.12.
As for `C[C@@H](O)[C@H]1C(=O)N2C(C(=O)[O-])=C(c3ccc(C[n+]4ccc(N5CCOCC5)cc4)cc3)C[C@H]12`, the Relative potency in the test on Klebsiella was determined as 2.1; with Serratia, 11.3; in the test on Staphylococcus aureus, 0.5; in the test with Enterococcus, 4.6; with Pseudomonas it was 0.1; in the test with Proteus it was 4.6. Besides, the Relative potency amounted to 4 with Escherichia coli and 9.8 with Enterobacter. Further, in test [1], the Susceptibility was 0.06.
Take `C[C@H](O)[C@H]1C(=O)N2C(C(=O)O)=C(c3ccc(CN)cc3)C[C@H]12`: in test [1], the Susceptibility is 0.02.
On to `C[C@@H](O)[C@H]1C(=O)N2C(C(=O)[O-])=C(c3ccc(C[n+]4ccc(N5CCCCC5)cc4)cc3)C[C@H]12`, for which the Relative potency in the test with Klebsiella came out at 0.5; with Serratia, 2.8; in the test on Staphylococcus aureus it was 1.1; in the test on Enterococcus it was 5.7; in the test with Pseudomonas, 0.05; with Proteus it was 4. Moreover, the Relative potency was 2.8 in the test with Escherichia coli and 2.5 with Enterobacter. Moreover, in test [1], the Susceptibility is 0.11.
For `C[C@@H](O)[C@H]1C(=O)N2C(C(=O)[O-])=C(c3ccc(C[n+]4ccc5ccccc5c4N)cc3)C[C@H]12`, the Relative potency in the test on Klebsiella is 0.7; with Serratia, 3.7; in the test on Staphylococcus aureus, 1.3; in the test with Enterococcus, 9.2; in the test with Pseudomonas, 0.05; with Proteus, 3.7. The Relative potency with Escherichia coli was 2.7; with Enterobacter, 2.3. Further, the Susceptibility in test [1] is 0.14.
In the case of `C[C@@H](O)[C@H]1C(=O)N2C(C(=O)[O-])=C(c3ccc(C[N+]4(C)CCCC4)cc3)C[C@H]12`, the Relative potency with Klebsiella turned out to be 2.6; in the test on Serratia, 26; in the test on Staphylococcus aureus, 0.9; with Enterococcus, 13.9; with Pseudomonas it was 0.03; with Proteus it was 8.6. For the same compound, the Relative potency with Escherichia coli is on record as 3.2; in the test on Enterobacter it was 7.5. In addition, the Susceptibility in [1] was 0.03.
In the case of `C[C@@H](O)[C@H]1C(=O)N2C(C(=O)O)=C(c3ccc(CN4CCCCC4)cc3)C[C@H]12`, the Relative potency in the test with Klebsiella is given as 1.4; in the test with Serratia, 5.7; in the test with Staphylococcus aureus, 0.6; in the test with Enterococcus it was 6.1; with Pseudomonas, 0.05; with Proteus, 8.6. The values for the Relative potency in the test on Escherichia coli and with Enterobacter were 2.5 and 4, respectively. The Susceptibility in test [1] was 0.03.
In the case of `C[C@@H](O)[C@H]1C(=O)N2C(C(=O)[O-])=C(c3ccc(C[n+]4ccc(N)cc4)cc3)C[C@H]12`, the Relative potency in the test on Klebsiella is given as 2.3; in the test on Serratia, 29.9; in the test on Staphylococcus aureus, 1.1; in the test on Enterococcus it was 24.3; with Pseudomonas, 0.2; with Proteus, 16. In addition, the Relative potency in the test on Escherichia coli is recorded as 7; in the test with Enterobacter, 11.3. In addition, the Susceptibility in test [1] is 0.14.
Regarding `C[C@@H](O)[C@H]1C(=O)N2C(C(=O)[O-])=C(c3ccc(C[n+]4ccc(N5CCCC5)cc4)cc3)C[C@H]12`, the Relative potency in the test on Klebsiella was found to be 0.8; with Serratia, 7.5; in the test on Staphylococcus aureus, 0.6; with Enterococcus, 14.9; in the test on Pseudomonas it was 0.04; in the test on Proteus it was 7.5. The Relative potency with Escherichia coli was 3.5; in the test on Enterobacter, 3. Further, the Susceptibility in test [1] was 0.33.
Regarding `C[C@@H](O)[C@H]1C(=O)N2C(C(=O)[O-])=C(c3ccc(C[n+]4cccc(N)c4)cc3)C[C@H]12`, the Relative potency is given as 4.3 with Klebsiella; 22.6 in the test with Serratia; 2.3 in the test on Staphylococcus aureus; 17.1 with Enterococcus; 0.1 with Pseudomonas; 14.9 in the test on Proteus. Moreover, the Relative potency with Escherichia coli is reported as 7.5; in the test with Enterobacter, 11.3. Besides, in [1], the Susceptibility is 0.09.
On to `C[C@@H](O)[C@H]1C(=O)N2C(C(=O)[O-])=C(c3ccc(C[N+]4(C)CCOCC4)cc3)C[C@H]12`, for which the Relative potency in the test on Klebsiella stood at 2.3; in the test on Serratia, 7.5; in the test on Staphylococcus aureus, 0.8; with Enterococcus it was 10.6; with Pseudomonas, 0.02; with Proteus it was 6.1. Further, the figures for the Relative potency with Escherichia coli and in the test on Enterobacter were 2 and 5.7, respectively. For the same compound, the Susceptibility in test [1] was 0.02.
Take `C[C@@H](O)[C@H]1C(=O)N2C(C(=O)[O-])=C(c3ccc(C[n+]4cc(N)cc5ccccc54)cc3)C[C@H]12`: the Relative potency in the test with Klebsiella worked out at 0.9; in the test on Serratia it was 9.2; with Staphylococcus aureus, 1.9; in the test with Enterococcus, 12.1; in the test with Pseudomonas, 0.05; in the test on Proteus, 9.2. Besides, the Relative potency with Escherichia coli and in the test on Enterobacter was 3.7 in each case. Besides, the Susceptibility in test [1] is 0.09.
Regarding `C[C@@H](O)[C@H]1C(=O)N2C(C(=O)[O-])=C(c3ccc(C[n+]4cccc(C#N)c4)cc3)C[C@H]12`, the Relative potency in the test on Klebsiella is recorded as 2.1; with Serratia, 11.3; in the test with Staphylococcus aureus, 0.9; with Enterococcus, 10.6; in the test on Pseudomonas, 0.1; in the test on Proteus, 4.6. Also, the Relative potency is given as 4 in the test on Escherichia coli and 9.8 in the test with Enterobacter. For the same compound, the Susceptibility in test [1] is 0.06.
Regarding `C[C@@H](O)[C@H]1C(=O)N2C(C(=O)[O-])=C(c3ccc(C[n+]4cccc(C(F)(F)F)c4)cc3)C[C@H]12`, the Relative potency with Klebsiella is on record as 2.8; in the test on Serratia, 13; in the test with Staphylococcus aureus, 1.1; with Enterococcus, 8; with Pseudomonas, 0.05; in the test on Proteus, 3.7. Besides, the Relative potency was 3 in the test with Escherichia coli and 5.7 with Enterobacter. Besides, the Susceptibility in [1] is 0.04.
Turning to `C[C@@H](O)[C@H]1C(=O)N2C(C(=O)[O-])=C(c3ccc(C[n+]4ccc5ccccc5c4)cc3)C[C@H]12`, the Relative potency with Klebsiella amounted to 2; in the test with Serratia, 36.8; in the test on Staphylococcus aureus it was 1.3; in the test on Enterococcus it was 24.3; in the test on Pseudomonas it was 0.07; in the test with Proteus, 17.1. The Relative potency is listed as 7.5 in the test on Escherichia coli and 11.3 in the test on Enterobacter. Moreover, the Susceptibility in test [1] was 0.08.
Consider `C[C@@H](O)[C@H]1C(=O)N2C(C(=O)[O-])=C(c3ccc(C[n+]4cccc5ccccc54)cc3)C[C@H]12`, for which the Relative potency in the test with Klebsiella stood at 1.2; in the test with Serratia, 27.9; in the test on Staphylococcus aureus, 1.5; in the test on Enterococcus, 24.3; in the test with Pseudomonas, 0.07; in the test on Proteus, 13. The Relative potency was 6.1 with Escherichia coli and 8.6 in the test on Enterobacter. Further, the Susceptibility in test [1] is 0.07.
On to `C[C@@H](O)[C@H]1C(=O)N2C(C(=O)[O-])=C(c3ccc(C[N+]4(C)CCCCC4)cc3)C[C@H]12`, for which the Relative potency with Klebsiella came out at 1.9; in the test with Serratia it was 11.3; in the test on Staphylococcus aureus it was 0.8; with Enterococcus, 14.9; with Pseudomonas it was 0.03; in the test with Proteus, 9.8. In addition, the Relative potency in the test with Escherichia coli stood at 5.3; in the test on Enterobacter, 8. Further, the Susceptibility in [1] is 0.03.
As to `CC(O)[C@H]1C(=O)N2C(C(=O)O)=C(c3ccc(CN)cc3)C[C@H]12` (some centres undefined), the Relative potency with Klebsiella amounted to 3.2; in the test with Serratia it was 5.3; in the test on Staphylococcus aureus, 1.5; in the test on Enterococcus it was 9.2; in the test on Pseudomonas it was 0.02; in the test with Proteus it was 6.5. Also, the Relative potency is on record as 3.5 in the test on Escherichia coli and 11 in the test with Enterobacter.
For the compound `C[C@@H](O)[C@H]1C(=O)N2C(C(=O)[O-])=C(c3ccc(C[n+]4cccc(C(=O)O)c4)cc3)C[C@H]12`, in test [1], the Susceptibility is 0.08.
